# Measured values from patent EP3050567B1, “COMPOUND FOR ACTIVATING AMPK AND USES THEREOF” (Energenesis Biomedical Co., Ltd., priority 2013, dated 2015).
# What was measured:
# AMPK [1] = assay: AMPK activation assay (phospho-AMPK Thr172 western blot) in HT29 cells; assay type: cell-based, human; conditions: 30 min
# Experimental: (§1) Effects of adenine on AMPK activation were evaluated based on the phosphorylation of AMPK protein upon adenine treatment. Mouse muscle cell C2C12, mouse fibroblast 3T3, human liver carcinoma cell Hep G2, human breast adenocarcinoma cell line MCF7 and human colon adenocarcinoma grade II cell line HT29, human umbilical vein endothelial cell HUVEC, Human acute monocytic leukemiacell THP1, human macrophage cell U937, murine microglia cell BV-2, and mouse neuroblastoma cell Neuro2A and dermal papilla cell were cultured in high-glucose Dulbecco's modified Eagle's medium (DMEM) containing 10% fetal bovine serum (FBS), 4 mM L-glutamine, 2 mM sodium pyruvate and 1% penicillin/streptomycin (Invitrogen GibcoBRL, Carlsbad, Calif., USA) at 37°C, under 5% CO2. Cells were plated at 3 × 10^5 per well in 6-well plates. Twenty-four hours after plating, adenine was added to the culture media as indicated. After 30 min cells were lysed and subject to western blot analysis. Equal amount of protein from each sample was separated by SDS-PAGE and then electroblotted on to PVDF membranes. Membranes were blocked with 3% BSA in PBS for 60 min and incubated with an anti-phospho-AMPK (Thr172) antibody (1:2,000, Cell signaling) or an anti-AMPK antibody (1:2,000, Cell signaling) at 4°C for 16 h followed by the corresponding secondary antibody for 1 h at room temperature (RT). Immunoreactive bands were detected by enhanced chemiluminescence and recorded using Kodak film. The detected signals were scanned and then quantified using TotalLab Quant software (TotalLab).
# AMPK [2] = assay: AMPK activation assay (phospho-AMPK Thr172 western blot) in Neuro2A cells; assay type: cell-based, mouse; conditions: 30 min
# Experimental: as §1
# IL-1β = assay: LPS-induced inflammatory response in THP1 macrophages, secreted IL-1β (ELISA); assay type: cell-based, human; conditions: 50 ng LPS 6 hr
# Experimental: Effects of adenine on inflammatory response were evaluated in human THP1 macrophage by examining protein level of intracellular COX-2 and secreted TNFα, IL-1β and IL-6. Differentiation of THP1 monocytes into macrophages was induced by 50 nM PMA for 24 hr. THP1 macrophages were further stimulated by 50 ng LPS for 6 hr in the presence of 10-600 µM of adenine or vehicle followed by cell lysis and western blot analysis. Equal amounts of protein were separated by SDS-PAGE and then electroblotted on to PVDF membranes. Membranes were blocked with 3% BSA in PBS for 60 min and incubated with an anti-COX-2 antibody (1:1,000, Cell signaling), an anti-actin antibody (1:5,000, Cell signaling) at 4° C for 16 h followed by the corresponding secondary antibody for 1 h at room temperature (RT). Immunoreactive bands were detected by enhanced chemiluminescence and recorded using Kodak film. The detected signals were scanned and then quantified using TotalLab Quant software (TotalLab). The secreted TNFα, IL-1β and IL-6 were analyzed by enzyme-linked immunosorbent assays.
# [3] = test system: TNBS-induced inflammatory bowel disease (IBD) mice model; assay: TNBS induced inflammation in vivo (relapsing colitis); set-up: species or system C57BL/6J mice; conditions: daily IP adenine 0.01, 0.1, 5 or 30 mg/kg
# Experimental: To further evaluate the effects of adenine on inflammatory response, TNBS-induced inflammatory bowel disease (IBD) mice model was used. C57BL/6J mice were maintained at 22° C, under a 12-h light/dark cycle. Relapsing colitis was induced with five escalating doses of TNBS, 0.5 mg, 0.75 mg, 1.0 mg, 1.25 mg, and 1.5 mg, in 50% ethanol were administered respectively for 0.1 mL per mouse weekly. After the third administration of TNBS, daily intraperitoneal injection of adenine (0.01, 0.1, 5 or 30 mg/kg body weight) or saline were given to mice. Two days after the fifth TNBS administration, mice were sacrificed. The inflammatory cytokines including TNF, INFγ and IL-17 from colonic lysates were evaluated by enzyme-linked immunosorbent assays.
# Amyloid β peptide = Amyloid β peptide assay in Neuro2A cells transfected with human APP695 (western blot); assay type: cell-based, mouse; conditions: 24 h
# Experimental: Effects of adenine on Amyloid β peptide were analyzed in mouse neuroblastoma cell Neuro2A. Neuro2A cells were cultured in high-glucose Dulbecco's modified Eagle's medium (DMEM) containing 10% fetal bovine serum (FBS), 4 mM L-glutamine, 2 mM sodium pyruvate and 1% penicillin/streptomycin (Invitrogen GibcoBRL, Carlsbad, Calif., USA) at 37°C under 5% CO2. Cells were plated at 3 × 10^5 per well (6-well plate). 24 h after plating, cells were transfected with human APP695 and treated with indicated concentration of adenine for 24 h followed by cell lysis and western blot analysis. Equal amounts of protein were separated by SDS-PAGE and then electroblotted on to PVDF membranes. Membranes were blocked with 3% BSA in PBS for 60 min and incubated with an anti-Aβ antibody (1:1,000, abcam), an anti-LC3 antibody (1:1,000, Cell signaling), and an anti-actin antibody (1:5,000, Cell signaling) at 4°C for 16 h followed by the corresponding secondary antibody for 1 h at room temperature (RT). Immunoreactive bands were detected by enhanced chemiluminescence and recorded using Kodakfilm. The detected signals were scanned and then quantified by using TotalLab Quant software (TotalLab).
# Hep G2 = assay: Cancer cell growth inhibition assay, Hep G2; assay type: cell-based; conditions: Homo sapiens; HepG2 cell proliferation, 72 h, cell counting
# Experimental: Human liver hepatocellular carcinoma cell line Hep G2, human breast adenocarcinoma cell line MCF7 and human colon adenocarcinoma grade II cell line HT29 were used to evaluate the effects of adenine on cell proliferation. Those cell lines were obtained from ATCC and were cultured in high-glucose Dulbecco's modified Eagle's medium (DMEM) containing 10% fetal bovine serum (FBS), 4 mM L-glutamine, 2 mM sodium pyruvate and 1% penicillin/streptomycin (Invitrogen GibcoBRL, Carlsbad, Calif., USA) at 37°C under 5% CO2. Cells were plated at 1 × 10^5 per well (6-well plate). Twenty-four hours after plating, cells were treated with indicated concentration of adenine for 72 h and then followed by cell counting. Cells were detached using trypsin-EDTA solution and stained with trypan blue. The living cells were counted using hemocytometer.
# [4] = colonic lysates, dose-dependent, vs non-adenine treated mice
compound,measurement,setting,value
"Nc1ncnc2nc[nH]c12 [Adenine, adenine]",AMPK activation (fold to control),AMPK [1]; adenine 1 microM,1.1 fold to control
same,AMPK activation (fold to control),AMPK [1]; adenine 10 microM,1.7 fold to control
same,AMPK activation (fold to control),AMPK [1]; adenine 100 microM,2.9 fold to control
same,AMPK activation (fold to control),AMPK [1]; adenine 200 microM,3.4 fold to control
same,AMPK activation (fold to control),AMPK [1]; adenine 600 microM,3.8 fold to control
same,AMPK activation (fold to control),AMPK [2]; adenine 1 microM,1.2 fold to control
same,AMPK activation (fold to control),AMPK [2]; adenine 10 microM,2.1 fold to control
same,AMPK activation (fold to control),AMPK [2]; adenine 100 microM,3.4 fold to control
same,IL-1β □ (%to control),IL-1β; adenine 10 microM,91±8.4 %to control
same,IL-1β □ (%to control),IL-1β; adenine 100 microM,29±5.5 %to control
same,IL-1β □ (%to control),IL-1β; adenine 600 microM,17±3.7 %to control
same,body weight loss caused by TNBS,[3],rescued the body weight loss
same,level of IL-17 in colon,[3]; [4],significantly reduced
same,level of INFγ in colon,[3]; [4],significantly reduced
same,level of TNF in colon,[3]; [4],significantly reduced
same,sAβ level (% of control),"Amyloid β peptide; Neuro2A cells transfected with human APP695, adenine 10 microM",89 ± 7.5 % of control
same,sAβ level (% of control),"Amyloid β peptide; Neuro2A cells transfected with human APP695, adenine 20 microM",63 ± 2.2 % of control
same,sAβ level (% of control),"Amyloid β peptide; Neuro2A cells transfected with human APP695, adenine 30 microM",48.1 ± 1.7 % of control
same,sAβ level (% of control),"Amyloid β peptide; Neuro2A cells transfected with human APP695, adenine 40 microM",31.7 ± 5.1 % of control
same,sAβ level (% of control),"Amyloid β peptide; Neuro2A cells transfected with human APP695, adenine 50 microM",29.4 ± 3.6 % of control
same,IC50,Hep G2,544 µM
